Experimental data as given in patent US20220241314A1, “COMPOSITIONS AND METHODS FOR TREATMENT OF HEPATITIS B VIRUS INFECTION” (priority 2019, published 2022).
{ppp} = triphosphate

Tests used:
HBV = HBV replication infection/treatment time course over 20 dpi; type: cell-based, HBV (Genotype D); conditions: HepG2-hNTCP; for production of pgRNA (RT-qPCR): 6 dpi to 20 dpi; for capsid-associated intracellular HBV DNA (RC, DL, SS DNA), Southern blot: 6 to 20 dpi; for production of cccDNA over time course: F7 10 μM or poly-U/UC PAMP 100 ng/ml from 24 hours after infection, within 2 dpi; for extracellular HBV DNA (qPCR) / secreted HBsAg in culture supernatant (ELISA): infection/treatment time course
Experimental: FIGS. 9A-9E illustrate kinetics of HBV replication in parallel cultures of cells during treatment with F7 or poly-U/UC PAMP. (9A) HepG2-hNTCP cells were infected with HBV at a moi of 1000 Geq/cell. After 24 hours the cells were treated with F7 (10 μM) (upper), or 100 ng/ml X RNA or 100 ng/ml poly-U/UC PAMP (lower). Cells were harvested at each time point, Hirt supernatants prepared and subjected to Southern blot analysis. (B) HBV pgRNA was analyzed by RT-qPCR. Values from 20 Dpi of ‘HBV only’ was set to 100% for RT-PCR analysis. Data was presented as mean±standard deviations (SD), ***P<0.001, ****P 21 0.0001; and ns=non-significant (9C) HBV intracellular capsid-associated DNA from cells treated with 10 uM F7 (upper) or 100 ng/ml XRNA or poly-U/UC PAMP (lower) was analyzed by Southern blot. (9D) Secreted HBsAg from HBV-infected cells treated with F7 (upper) or poly-U/UC (lower) was detected by ELISA. (9E) Extracellular HBV-DNA was measured by qPCR from cells treated with 10 uM (left) or 100 ng/ml XRNA or poly-U/UC PAMP (right). Data are presented as mean±standard deviation (SD) from three independent experiments. ***P 0.0002.
To further determine how the activation of IRF3 impacts the HBV replication cycle, the expression of viral DNA, viral RNA, extracellular HBV DNAs and secreted HBsAg were analyzed over an infection/treatment time course. […] The level of capsid-associated intracellular HBV DNA intermediates of reverse transcription produced over the HBV infection/treatment time course were also measured.
HBV infection HBV (Genotype D) was purified from the supernatant of HepAD38 cells by PEG concentration and subsequent sucrose gradient, as described previously (Ko, C., et al. (2014). DDX3 DEAD-Box RNA Helicase Is a Host Factor That Restricts Hepatitis B Virus Replication at the Transcriptional Level. Journal of Virology 88, 13689-13698; Watashi, K., et al. (2013), supra). For HBV infection cells were seeded into collagen-coated plates. One day later, the cells were infected with HBV in DMEM containing 4% polyethylene glycol 8000 (PEG-8000). The multiplicities of infection (expressed as virus genome equivalent/cell) are indicated in each Figure Legend. The inocula were removed 24 hours later, and the infected cultures were maintained in complete DMEM containing 2.5% DMSO until harvesting, as described previously (Ni, Y., et al. (2014). Hepatitis B and D viruses exploit sodium taurocholate co-transporting polypeptide for species-specific entry into hepatocytes. Gastroenterology 146, 1070-1083).
Reverse transcription quantitative real time qPCR (RT-qPCR) analysis: Total cellular RNAs were extracted from cells using TRIZOL reagent and the manufacturers protocol (Invitrogen). cDNA was synthesized from the purified RNA by both random and oligo (dT) priming using iScript select cDNA synthesis kit (Biorad, Inc.). For HBV cccDNA expression analysis, total DNA was extracted using the DNeasy kit (QIAGEN). For selective cccDNA PCR analysis, isolated DNAs were treated with 10 Units of T5 exonuclease (NEB) for 30 min in 10 μl of reaction volume in 37° C., followed by heat-inactivation at 95° C. for 5 min and 4-fold dilution with Nuclease-free water. For extra-cellular HBV DNA quantification, an external HBV plasmid standard was used to program the PCR (Ko, C., et al. (2018), supra). Relative mRNA levels of all target genes were quantified by RT-qPCR performed using the ΔΔCT method, and expression levels were normalized to house-keeping genes. Real-time PCR assays were carried out using the SYBR green method (Applied Biosystems) performed using an Applied Biosystems 7300 thermocycler. […]

in vitro [1] = conditions: human
Experimental: (§1) HepG2-NTCP Cells (10A and 10C), dHepaRG (10B and 10D), and PHH (10E) were treated with increasing doses of F7 or poly-U/UC PAMP for 72 hours. Cell viability was determined concurrently by measuring ATP content, with values normalized to mock-treated cells. Graph represents the mean of triplicated samples in each of 3 independent experiments, with error bars showing standard deviation.ns=non-significant.
(§2) To determine the values of 90% of maximal Inhibitory concentration (IC90) and half-maximal Inhibitory concentration (IC50), as well as the cytotoxic concentration, CC50, of F7 and poly-U/UC, PAMP, two different cell lines were used, HepG2-hNTCP and dHepaRG cells.
(§3) Cytotoxicity assays: Cytotoxicity was evaluated from cultures of HepG2-C3A -hNTCP and dHepaRG cells using CellTiter-Glo as described (Edwards, T. C., et al. (2019). Inhibition of HBV replication by N-hydroxvisoquinolinedione and N-hydroxypyridinedinone ribonuclease H inhibitors. Antiviral research 164, 70-80). […] Cytotoxicity of each was measured with the ATP content as a measure of cell viability using the CellTiter-Glo™ reagent (Promega) per manufacturer's instructions. The plates were read using a luminescence plate reader (Berthold) and the relative luminescence unit (RLU) data generated from each well was calculated as percent signal compared to the untreated control. […]

in vitro [2] = conditions: human, HepG2-hNTCP cells (HepG2-C3A-hNTCP)
Experimental: as §1, §2, §3

O=C(Nc1ccc2nc(NC(=O)c3ccc4ccccc4c3)sc2c1)c1ccccc1 [F7, N-(6-benzamido-1,3-benzothiazol-2-yl)naphthalene-2-carboxamide]
production of pgRNA (RT-qPCR) (HBV): significantly suppressed | capsid-associated intracellular HBV DNA (RC, DL, SS DNA), Southern blot (HBV): markedly decreased the levels of these DNA species | production of cccDNA over time course (HBV): markedly suppressed | extracellular HBV DNA (qPCR) (HBV): reduction of extracellular HBV DNA | secreted HBsAg in culture supernatant (ELISA) (HBV): significant reduction in the level of secreted HBsAg | CC50 at 72 h (in vitro [1]): > 40 µM | CC50 at 72 h (in vitro [2]): > 40 µM

B1: poly-U/UC PAMP: ~100 nt PAMP motif from the HCV genome comprising 5′ppp and the poly U/UC region, recognized by RIG-I; formulated in liposome (nucleic acid)
chain: GGCCAUCCUGUUUUUUUCCCUUUUUUUUUUUCUUUUUUUUUUUUUUUUUUUUUUUUUUUUUUUUUUCUCCUUUUUUUUUCCUCUUUUUUUCCUUUUCUUUCCUUU
modifications: RNA, 5' {ppp}, backbone and methylation of C not given here; formulated in liposome
notes: ~100 nt PAMP motif from the HCV genome comprising 5′ppp and the poly U/UC region, recognized by RIG-I; formulated in liposome
production of pgRNA (RT-qPCR) (HBV): significantly suppressed | capsid-associated intracellular HBV DNA (RC, DL, SS DNA), Southern blot (HBV): markedly decreased the levels of these DNA species | production of cccDNA over time course (HBV): markedly suppressed | extracellular HBV DNA (qPCR) (HBV): reduction of extracellular HBV DNA | secreted HBsAg in culture supernatant (ELISA) (HBV): significant reduction in the level of secreted HBsAg
